The numbers were not newly measured in publication PMC12281572, which cites them from elsewhere.

Molecules are shown by their SMILES. Where “and” joins values, the source holds several entries; their conditions need not be identical. Equal values may be shown once.

The nature of the data set: FTIR, 4-fluorophenol as donor (the pK_BHX database, per the paper). Conditions: CCl4; 25 C.

In the case of `CN(C)c1ccccn1`, the “pK_BHX (log10 Kf of the 1:1 H-bond complex with 4-fluorophenol, by FTIR)” value is on record as 1.61 log units.
Regarding `CN(C)c1cccc2cccc(N(C)C)c12`, the “pK_BHX (log10 Kf of the 1:1 H-bond complex with 4-fluorophenol, by FTIR)” value was -0.24 log units.
`CCCCCCl`: the “pK_BHX (log10 Kf of the 1:1 H-bond complex with 4-fluorophenol, by FTIR)” value is -0.38 log units.
For `CN(C)C=Nc1ccc(F)cc1`, the “pK_BHX (log10 Kf of the 1:1 H-bond complex with 4-fluorophenol, by FTIR)” value is given as 1.8 log units.
`CCCCNC`: the “pK_BHX (log10 Kf of the 1:1 H-bond complex with 4-fluorophenol, by FTIR)” value is recorded as 2.24 log units.
For `CCOC(=O)c1ccc(OC)cc1`, the “pK_BHX (log10 Kf of the 1:1 H-bond complex with 4-fluorophenol, by FTIR)” value was 1.13 log units.
Turning to `O=c1occo1`, the “pK_BHX (log10 Kf of the 1:1 H-bond complex with 4-fluorophenol, by FTIR)” value is 0.69 log units.
Consider `CCCCCl`, for which the “pK_BHX (log10 Kf of the 1:1 H-bond complex with 4-fluorophenol, by FTIR)” value is recorded as -0.41 log units.
With `Cc1cc(C)c(C)cc1C`, the “pK_BHX (log10 Kf of the 1:1 H-bond complex with 4-fluorophenol, by FTIR)” value was -0.15 log units.
With `CC(=Nc1ccccc1)N(C)c1cccc(Cl)c1`, the “pK_BHX (log10 Kf of the 1:1 H-bond complex with 4-fluorophenol, by FTIR)” value is listed as 1.44 log units.
Turning to `CN(C(=Nc1ccc(Br)cc1)c1ccccc1)c1ccccc1`, the “pK_BHX (log10 Kf of the 1:1 H-bond complex with 4-fluorophenol, by FTIR)” value was 1.11 log units.
Take `CCCN=C(NC)NC#N`: the “pK_BHX (log10 Kf of the 1:1 H-bond complex with 4-fluorophenol, by FTIR)” value is 2.09 log units.
As for `CCN(CC)C(=O)N(CC)CC`, the “pK_BHX (log10 Kf of the 1:1 H-bond complex with 4-fluorophenol, by FTIR)” value is on record as 2.43 log units.
On to `N#Cc1ccc(-c2ccccc2)cc1`, for which the “pK_BHX (log10 Kf of the 1:1 H-bond complex with 4-fluorophenol, by FTIR)” value was 0.83 log units.
Consider `CCCCSC`, for which the “pK_BHX (log10 Kf of the 1:1 H-bond complex with 4-fluorophenol, by FTIR)” value is on record as 0.17 log units.
On to `CC(=Nc1cccc(Br)c1)Nc1ccccc1`, for which the “pK_BHX (log10 Kf of the 1:1 H-bond complex with 4-fluorophenol, by FTIR)” value is on record as 1.24 log units.
In the case of `CC(C)N`, the “pK_BHX (log10 Kf of the 1:1 H-bond complex with 4-fluorophenol, by FTIR)” value is reported as 2.2 log units.
On to `COc1ccccc1C(=O)N(C)C`, for which the “pK_BHX (log10 Kf of the 1:1 H-bond complex with 4-fluorophenol, by FTIR)” value is recorded as 2.48 log units.
Turning to `CC12CCC(CC1)C(C)(C)O2`, the “pK_BHX (log10 Kf of the 1:1 H-bond complex with 4-fluorophenol, by FTIR)” value is recorded as 1.38 log units.
In the case of `CCCCCC#N`, the “pK_BHX (log10 Kf of the 1:1 H-bond complex with 4-fluorophenol, by FTIR)” value is listed as 0.89 log units.
Consider `Cn1cccc1`, for which the “pK_BHX (log10 Kf of the 1:1 H-bond complex with 4-fluorophenol, by FTIR)” value was 0.23 log units.
Regarding `O=C1c2ccccc2-c2ccccc21`, the “pK_BHX (log10 Kf of the 1:1 H-bond complex with 4-fluorophenol, by FTIR)” value is 1.09 log units.
`CNCc1ccccc1`: the “pK_BHX (log10 Kf of the 1:1 H-bond complex with 4-fluorophenol, by FTIR)” value is 1.82 log units.
On to `CC(C)(C)O`, for which the “pK_BHX (log10 Kf of the 1:1 H-bond complex with 4-fluorophenol, by FTIR)” value is on record as 1.14 log units.
For the molecule `CCc1cccnc1`, the “pK_BHX (log10 Kf of the 1:1 H-bond complex with 4-fluorophenol, by FTIR)” value is 2.01 log units.
As for `ClC12CC3CC(CC(C3)C1)C2`, the “pK_BHX (log10 Kf of the 1:1 H-bond complex with 4-fluorophenol, by FTIR)” value is -0.18 log units.
Consider `CC(C)(C)N=Cc1ccccc1`, for which the “pK_BHX (log10 Kf of the 1:1 H-bond complex with 4-fluorophenol, by FTIR)” value is 1.29 log units.
`CN(C)C=NC(=O)c1ccccc1`: the “pK_BHX (log10 Kf of the 1:1 H-bond complex with 4-fluorophenol, by FTIR)” value was 2.1 log units.
As for `CN(C)S(=O)(=O)c1ccccc1`, the “pK_BHX (log10 Kf of the 1:1 H-bond complex with 4-fluorophenol, by FTIR)” value is listed as 0.89 log units.
For the molecule `N#Cc1ccccc1`, the “pK_BHX (log10 Kf of the 1:1 H-bond complex with 4-fluorophenol, by FTIR)” value was 0.8 log units.
As to `O=[N+]([O-])c1cc[n+]([O-])cc1`, the “pK_BHX (log10 Kf of the 1:1 H-bond complex with 4-fluorophenol, by FTIR)” value is on record as 1.05 log units.
As to `Fc1cccc(F)n1`, the “pK_BHX (log10 Kf of the 1:1 H-bond complex with 4-fluorophenol, by FTIR)” value is given as 0.14 log units.
On to `c1cc2c3c(c1)CCCN3CCC2`, for which the “pK_BHX (log10 Kf of the 1:1 H-bond complex with 4-fluorophenol, by FTIR)” value is listed as 0.39 log units.
Consider `CCOC(=O)c1ccc([N+](=O)[O-])cc1`, for which the “pK_BHX (log10 Kf of the 1:1 H-bond complex with 4-fluorophenol, by FTIR)” value was 0.5 log units and 0.16 log units.
Turning to `c1ccc(C23CC4CC(CC(C4)C2)C3)cc1`, the “pK_BHX (log10 Kf of the 1:1 H-bond complex with 4-fluorophenol, by FTIR)” value is listed as -0.28 log units.
On to `CC(C)(C)C(=O)C(C)(C)C`, for which the “pK_BHX (log10 Kf of the 1:1 H-bond complex with 4-fluorophenol, by FTIR)” value was 0.96 log units.
`C=Cc1ccccn1`: the “pK_BHX (log10 Kf of the 1:1 H-bond complex with 4-fluorophenol, by FTIR)” value is 1.65 log units.
On to `N#CC12CC3CC(CC(C3)C1)C2`, for which the “pK_BHX (log10 Kf of the 1:1 H-bond complex with 4-fluorophenol, by FTIR)” value is 1.0 log units.
As to `CCOC(=O)C1CC1`, the “pK_BHX (log10 Kf of the 1:1 H-bond complex with 4-fluorophenol, by FTIR)” value was 1.12 log units.
In the case of `CN(C)C=Nc1ccccc1`, the “pK_BHX (log10 Kf of the 1:1 H-bond complex with 4-fluorophenol, by FTIR)” value is given as 1.9 log units.
For the molecule `CC(C)(C)C(=O)N(c1ccccc1)c1ccccc1`, the “pK_BHX (log10 Kf of the 1:1 H-bond complex with 4-fluorophenol, by FTIR)” value is listed as 1.64 log units.
